Test [1] relates to GM3 expression on the cell surface, C32 human melanoma cells. The experiment in a line: cell based phenotypic assay, cell surface GM3 by antibody mediated immunofluorescence, C32 (GM3 C32 IC50). The conditions noted are these: Homo sapiens, 50% inhibition of GM3 expression on the cell surface. In outline: (§1)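 B16 mouse and C32 human melanoma cells; cell-surface GM3 measured by antibody-mediated immunofluorescence, giving IC50.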

In test [2] the test system is C32 human melanoma cells. The experiment in a line: cell viability in the C32 cell-based assay (Viability, C32 IC50). The conditions noted are these: Homo sapiens, concentration causing 50% cell death, values greater than 10 represent a lack of cell death. In outline:
(§2)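 Viability readouts were run alongside the GM3 cell-surface assay in the same B16 and C32 cultures. A figure above 10 indicates no cell death.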

For test [3], the system named is GM3 expression on the cell surface, B16 mouse melanoma cells. The experiment in a line: cell based phenotypic assay, cell surface GM3 by antibody mediated immunofluorescence, B16 (GM3 B16 IC50). The conditions noted are these: Mus musculus, 50% inhibition of GM3 expression on the cell surface. In a few lines:
as §1

The target of test [4] is T1, glucosylceramide synthase (Homo sapiens, UniProt Q16739).
T1 construct: Microsomes were isolated from A375 human melanoma cells; endogenous in cells; host or cells: A375 human melanoma cells (microsomal fraction, 100,000 g pellet)
T1 sequence (Q16739 1-394): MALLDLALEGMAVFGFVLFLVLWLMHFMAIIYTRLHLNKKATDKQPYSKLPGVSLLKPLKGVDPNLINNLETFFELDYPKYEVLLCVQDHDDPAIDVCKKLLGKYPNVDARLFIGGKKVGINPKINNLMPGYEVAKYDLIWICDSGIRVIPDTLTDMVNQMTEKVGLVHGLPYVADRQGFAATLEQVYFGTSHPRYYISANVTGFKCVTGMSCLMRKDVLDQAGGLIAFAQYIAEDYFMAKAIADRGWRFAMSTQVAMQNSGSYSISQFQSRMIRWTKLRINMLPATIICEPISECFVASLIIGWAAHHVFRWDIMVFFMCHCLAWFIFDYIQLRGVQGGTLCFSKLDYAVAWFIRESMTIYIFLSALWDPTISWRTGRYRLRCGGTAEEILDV
The experiment in a line: microsomal assay measuring conversion of ceramide to glucosylceramide by HPLC (GCS IC50). It is filed as biochemical. The conditions noted are these: concentration causing 50% inhibition of glucosylceramide synthase activity. In a few lines: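 IC50 is the compound concentration halving glucosylceramide synthase activity. Activity was measured in microsomes, with HPLC quantifying glucosylceramide formed from ceramide.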

Test [5] has as its system B16 mouse melanoma cells. The experiment in a line: cell viability in the B16 cell-based assay (Viability, B16 IC50). The conditions noted are these: Mus musculus. In outline: as §2
Where [6] appears, read: C32 human melanoma cells, read-out: GM3 C32 IC50.
Setting [7] is: C32, C32 cells, read-out: Viability, C32 IC50.
Setting [8] is: B16 mouse melanoma cells, read-out: GM3 B16 IC50.
[9] abbreviates: B16, B16 cells, concentration causing 50% cell death, values greater than 10 represent a lack of cell death, read-out: Viability, B16 IC50.
The mark [10] stands for this setting: read-out: GM3 C32 IC50, C32 human melanoma cells.
The mark [11] stands for this setting: C32, read-out: Viability, C32 IC50, C32 cells.
Setting [12] is: read-out: GM3 B16 IC50, B16 mouse melanoma cells.
The mark [13] stands for this setting: B16, read-out: Viability, B16 IC50.

Read-outs that look alike come from different tables or passages of the source. A value given as a limit tells only on which side of the number the result lay.

`CNC(=O)c1cccc(Oc2cccc(C(C)(C)NC(=O)NC3(C)CCN4CCC3CC4)c2)c1` (stereo not drawn) [Example 297, N-Methyl-3-(3-(2-(3-(4-methyl-1-aza-bicyclo[3.2.2]nonan-4-yl)ureido)propan-2-yl)phenoxy)benzamide]: the IC50 – broadly, the concentration that inhibits the measured activity by half – is 13.2 nM in test [1] (setting [6]); 1000 nM in test [2] (setting [7]); 1370 nM in test [3] (setting [8]); 10.2 nM in test [4]; no less than 10000 nM in test [5] (setting [9]).
On to `CNC(=O)c1cccc(Oc2cccc(C(C)(C)NC(=O)OC3CCN4CCC3CC4)c2)c1` (stereo not drawn) [Example 298, 1-Aza-bicyclo[3.2.2]nonan-4-yl 2-(3-(3-(methylcarbamoyl)phenoxy)phenyl)propan-2-ylcarbamate], for which the IC50 in test [1] (setting [6]) was 30.8 nM; in test [2] (setting [7]), 3160 nM; in test [3] (setting [8]) it was 1100 nM; in test [4] it was 138 nM; in test [5] (setting [9]), no less than 10000 nM.
The corresponding values for `CC(C)(NC(=O)OC1CCN2CCC1CC2)c1ccc(Oc2ccc(C(=O)N3CCCCC3)cc2)cc1` (stereo not drawn) [Example 299, 1-Aza-bicyclo[3.2.2]nonan-4-yl 2-(4-(4-(piperidine-1-carbonyl)phenoxy)phenyl) propan-2-ylcarbamate] are 3.67 nM, 1000 nM, 192 nM, 15.4 nM and no less than 10000 nM.
For `CC(C)(NC(=O)NC1(C)CCN2CCC1CC2)c1ccc(Oc2ccc(C(=O)N3CCCCC3)cc2)cc1` (stereo not drawn) [Example 300, 1-(4-Methyl-1-aza-bicyclo[3.2.2]nonan-4-yl)-3-(2-(4-(4-(piperidine-1-carbonyl)phenoxy)phenyl)propan-2-yl)urea], in that order: 1.54 nM, 316 nM, 87.6 nM, 6.85 nM and no less than 10000 nM.
Turning to `CC(C)(NC(=O)OC1CCN2CCC1CC2)c1ccc(Oc2ccc(C(=O)N3CCC(F)(F)CC3)cc2)cc1` (stereo not drawn) [Example 301, 1-Azabicyclo[3.2.2]nonan-4-yl 2-(4-(4-(4,4-difluoropiperidine-1-carbonyl)phenoxy)phenyl)propan-2-ylcarbamate], the IC50 in test [1] (setting [6]) is 3.39 nM; in test [2] (setting [7]), 1000 nM; in test [3] (setting [8]), 49.4 nM; in test [4] it was 17.2 nM; in test [5] (setting [9]), no less than 10000 nM.
For `CC(C)(NC(=O)NC1(C)CCN2CCC1CC2)c1ccc(Oc2ccc(C(=O)N3CCC(F)(F)CC3)cc2)cc1` (stereo not drawn) [Example 302, 1-(2-(4-(4-(4,4-Difluoropiperidine-1-carbonyl)phenoxy)phenyl)propan-2-yl)-3-(4-methyl-1-azabicyclo[3.2.2]nonan-4-yl)urea], in that order: 1.47 nM, 1000 nM, 31.7 nM, 4.22 nM and no less than 10000 nM.
For `CC(C)(NC(=O)NC1(C)CCN2CCC1CC2)c1ccc(Oc2ccc(C(=O)N3CC(F)(F)C3)cc2)cc1` (stereo not drawn) [Example 303, 1-(2-(4-(4-(3,3-Difluoroazetidine-1-carbonyl)phenoxy)phenyl)propan-2-yl)-3-(4-methyl-1-aza-bicyclo[3.2.2]nonan-4-yl)urea], in that order: 1.24 nM, 316 nM, 38.9 nM, 7.63 nM and no less than 10000 nM.
On to `CC(C)(NC(=O)OC1CN2CCC1CC2)c1ccc(C(=O)N2CCN(c3ccccc3)CC2)cc1` (stereo not drawn) [Example 304, Quinuclidin-3-yl 2-(4-(4-phenylpiperazine-1-carbonyl)phenyl)propan-2-ylcarbamate], for which the IC50 in test [1] (setting [10]) was 95.9 nM; in test [2] (setting [11]), no less than 10000 nM; in test [3] (setting [12]), 355 nM; in test [4], 1730 nM; in test [5] (setting [13]), no less than 10000 nM.
`CCC1(NC(=O)NC(C)(C)c2ccc(C(=O)N3CCN(c4ccccc4)CC3)cc2)CN2CCC1CC2` (stereo not drawn) [Example 306, 1-(3-Ethylquinuclidin-3-yl)-3-(2-(4-(4-phenylpiperazine-1-carbonyl)phenyl)propan-2-yl)urea]: the IC50 in test [1] (setting [6]) was 32 nM; in test [2] (setting [7]), 3160 nM; in test [3] (setting [8]), 257 nM; in test [4], 95.1 nM; in test [5] (setting [9]), no less than 10000 nM.
`COCCOc1ccc(-c2ccc(C(C)(C)NC(=O)OC3CN4CCC3CC4)cc2)cn1` (stereo not drawn) [Example 307, Quinuclidin-3-yl 2-(4-(6-(2-methoxyethoxy)pyridin-3-yl)phenyl)propan-2-ylcarbamate]: the IC50 in test [1] (setting [10]) was 97.2 nM; in test [2] (setting [11]), no less than 10000 nM; in test [3] (setting [12]), 4340 nM; in test [4], 735 nM; in test [5] (setting [13]) it was no less than 10000 nM.
Take `COCCOc1ccc(-c2ccc(C(C)(C)NC(=O)OC3CN4CCC3CC4)cc2)nc1` (stereo not drawn) [Example 308, Quinuclidin-3-yl 2-(4-(5-(2-methoxyethoxy)pyridin-2-yl)phenyl)propan-2-ylcarbamate]: the IC50 came out at 35.8 nM in test [1] (setting [10]); 1000 nM in test [2] (setting [11]); 314 nM in test [3] (setting [12]); 254 nM in test [4]; 7770 nM in test [5] (setting [13]).
Consider `COCCOc1ccc(-c2cccc(C(C)(C)NC(=O)OC3CN4CCC3CC4)c2)nc1` (stereo not drawn) [Example 309, Quinuclidin-3-yl 2-(3-(5-(2-methoxyethoxy)pyridin-2-yl)phenyl)propan-2-ylcarbamate], for which the IC50 in test [1] (setting [10]) is 14 nM; in test [2] (setting [11]) it was 3160 nM; in test [3] (setting [12]), 188 nM; in test [4], 106 nM; in test [5] (setting [13]) it was no less than 10000 nM.
Regarding `COCCOc1ccc(-c2ccc(C(C)(C)NC(=O)OC3CCN4CCC3CC4)cc2)nc1` (stereo not drawn) [Example 310, 1-Azabicyclo[3.2.2]nonan-4-yl 2-(4-(5-(2-methoxyethoxy)pyridin-2-yl)phenyl)propan-2-ylcarbamate], the half-inhibitory concentration (IC50) in test [1] (setting [6]) is 12.1 nM; in test [2] (setting [7]), 3160 nM; in test [3] (setting [8]), 145 nM; in test [4], 123 nM; in test [5] (setting [9]), no less than 10000 nM.
As for `COCCOc1ccc(-c2cccc(C(C)(C)NC(=O)OC3CCN4CCC3CC4)c2)nc1` (stereo not drawn) [Example 311, 1-Azabicyclo[3.2.2]nonan-4-yl 2-(3-(5-(2-methoxyethoxy)pyridin-2-yl)phenyl)propan-2-ylcarbamate], the IC50 in test [1] (setting [6]) was 8.5 nM; in test [2] (setting [7]) it was 3160 nM; in test [3] (setting [8]), 103 nM; in test [4] it was 76 nM; in test [5] (setting [9]), no less than 10000 nM.
For `COCCCOc1ccc(-c2cccc(C(C)(C)NC(=O)OC3CN4CCC3CC4)c2)nn1` (stereo not drawn) [Example 312, Quinuclidin-3-yl (2-(3-(6-(3-methoxypropoxy)pyridazin-3-yl)phenyl)propan-2-yl)carbamate], the IC50 in test [1] (setting [10]) is 103 nM; in test [2] (setting [11]), 1000 nM; in test [3] (setting [12]), 1340 nM; in test [4], 1660 nM; in test [5] (setting [13]), no less than 10000 nM.
Turning to `COCCCOc1ccc(-c2cccc(C(C)(C)NC(=O)OC3CCN4CCC3CC4)c2)nn1` (stereo not drawn) [Example 313, 1-Azabicyclo[3.2.2]nonan-4-yl (2-(3-(6-(3-methoxypropoxy)pyridazin-3-yl)phenyl)propan-2-yl)carbamate], the IC50 was 10.7 nM in test [1] (setting [6]); no less than 10000 nM in test [2] (setting [7]); 470 nM in test [3] (setting [8]); 88.9 nM in test [4]; no less than 10000 nM in test [5] (setting [9]).
Consider `COCCCOc1ccc(-c2cccc(C(C)(C)NC(=O)N3CCN4CCC3CC4)c2)nn1` [Example 314, N-(2-(3-(6-(3-Methoxypropoxy)pyridazin-3-yl)phenyl)propan-2-yl)-1,4-diazabicyclo[3.2.2]nonane-4-carboxamide], for which the IC50 in test [1] (setting [6]) was 118 nM; in test [2] (setting [7]), no less than 10000 nM; in test [3] (setting [8]), 4910 nM; in test [4], 2630 nM; in test [5] (setting [9]), no less than 10000 nM.
Take `COCCCOc1cnc(-c2cccc(C(C)(C)NC(=O)OC3CN4CCC3CC4)c2)cn1` (stereo not drawn) [Example 315, Quinuclidin-3-yl (2-(3-(5-(3-methoxypropoxy)pyrazin-2-yl)phenyl)propan-2-yl)carbamate]: the IC50 in test [1] (setting [10]) is 25.9 nM; in test [2] (setting [11]), 1000 nM; in test [3] (setting [12]) it was 435 nM; in test [4], 197 nM; in test [5] (setting [13]), no less than 10000 nM.

Source of the values: US12060349B2, “Glucosylceramide synthase inhibitors” (Genzyme Corporation, priority 2012, dated 2024).
